Test results from PubChem BioAssay (NCI).
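48-hour exposure; five concentrations; linearly interpolated endpoints. Abbreviation: GI50, concentration required for 50% inhibition of growth. TGI marks complete inhibition of growth.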

How the values were obtained:
Experiment in all cases: DTP human tumour cell line panel, 48 h
[1] = test system: HCT-15 colon
[2] = test system: HL-60(TB) leukemia
[3] = test system: HCT-116 colon
[4] = test system: HOP-62 NSCLC
[5] = test system: MOLT-4 leukemia
[6] = test system: SK-MEL-28 melanoma
[7] = test system: T-47D breast
[8] = test system: RXF 393 renal
[9] = test system: NCI-H23 lung
[10] = test system: SNB-75 CNS

| Structure (SMILES) | GI50 [1] [µM] | TGI [1] [µM] | GI50 [2] [µM] | TGI [2] [µM] | GI50 [3] [µM] | TGI [3] [µM] | GI50 [4] [µM] | TGI [4] [µM] | GI50 [5] [µM] | TGI [5] [µM] | GI50 [6] [µM] | TGI [6] [µM] | GI50 [7] [µM] | TGI [7] [µM] | GI50 [8] [µM] | TGI [8] [µM] | GI50 [9] [µM] | TGI [9] [µM] | GI50 [10] [µM] | TGI [10] [µM] |
| --- | --- | --- | --- | --- | --- | --- | --- | --- | --- | --- | --- | --- | --- | --- | --- | --- | --- | --- | --- | --- |
| CCn1c(-c2nonc2N)nc2ccc(F)cc21 | > 25 | > 25 | > 25 | > 25 | > 25 | > 25 | > 25 | > 25 | > 25 | > 25 | > 25 | > 25 | > 25 | > 25 | > 25 | > 25 | > 25 | > 25 | > 25 | > 25 |
| COc1cc(/C=C2\CC3C4CC=C5CC(N6CCCC6)CC[C@]5(C)C4CC[C@]3(C)C2OC(C)=O)ccc1OCCN1CCCC1 (some centres undefined) | 1.52 | 3.4 | 2.05 | 4.36 | 1.54 | 2.87 | 19.7 | 34.6 | 2.18 | 4.48 | 2.51 | 5.42 | 16.8 | 34.5 | – | – | 14.2 | 27.6 | 2.51 | 5.09 |
| Cc1ccc2/c(=C/c3ccc(N(C)C)cc3)c3cc(-c4ccccc4)[n+](C)n3c2c1 | 0.824 | > 100 | – | – | 0.0406 | > 100 | 0.257 | 7.33 | 0.0383 | > 100 | 0.146 | 3.7 | 0.0956 | > 100 | – | – | 0.0836 | 1.9 | 0.144 | 2.02 |
| CNC(=O)c1cn(C[C@H](F)CCc2ccc(NC(=O)Cc3cc(OC4CC(F)(F)C4)cc(C)n3)nn2)nn1 | > 100 | > 100 | > 100 | > 100 | > 100 | > 100 | > 100 | > 100 | > 93.5 | > 100 | > 100 | > 100 | > 100 | > 100 | > 31.5 | > 100 | > 100 | > 100 | > 100 | > 100 |
| CCCNCc1cc(C)cc2c1nc(N1CCNCC1)n2Cc1cc(C)c(F)c(C)c1 | 4.46 | 16.4 | 1.76 | 3.8 | 2.19 | 4.54 | 17 | 32.2 | 1.8 | 4.39 | 1.84 | 3.54 | 1.88 | 3.62 | – | – | 12.8 | 27.3 | 12.1 | 26.4 |
| CNc1nc(NC2CCCC2)nc(Sc2ccc(OC)cc2)n1 | > 10 | > 10 | > 10 | > 10 | > 10 | > 10 | > 10 | > 10 | > 10 | > 10 | > 10 | > 10 | > 10 | > 10 | > 10 | > 10 | > 10 | > 10 | > 10 | > 10 |
| COc1ccc2c(-c3cc4ccccc4o3)cc(=O)oc2c1 | – | > 100 | – | > 100 | – | > 100 | – | 46.7 | – | > 100 | – | > 100 | – | > 100 | – | 53.5 | – | > 100 | – | 47.6 |
| Cc1c(-c2nc(N)nc(C3CC3)c2C)nc(N)nc1C1CC1 | – | > 100 | – | > 100 | – | > 100 | – | > 100 | – | > 100 | – | > 100 | – | > 100 | – | > 100 | – | > 100 | – | > 100 |
| COc1ccc2c(c1)[C@@]13CCN4CC5=CCO[C@H]6CC(=O)N2[C@H]1[C@H]6[C@H]5C[C@H]43 | – | > 100 | – | > 100 | – | > 100 | – | > 100 | – | > 100 | – | > 100 | – | > 100 | – | > 100 | – | > 100 | – | – |
| Clc1ccc(OCc2nnc3n2N=C(c2ccc(Cl)cc2Cl)CS3)c(Cl)c1 | 12.7 | 33.2 | 35.6 | > 100 | 15.2 | 32.8 | 27.8 | 78.6 | 22.8 | > 100 | 22.6 | 57 | 33 | > 100 | 4.08 | 25.4 | 22.5 | 55.4 | 12.2 | 48.7 |
| COC(=O)c1c(O)ccc2[nH]c(C)c(C#N)c12 | 42.1 | > 100 | – | – | 22 | 61.5 | 22.7 | 81 | 26.7 | > 100 | 65.9 | > 100 | 44.4 | > 100 | 22 | > 100 | 77.1 | > 100 | 87.9 | > 100 |
| COC(=O)NC/C=C\c1nc(CC/C=C\C(=O)OC2CC3CC(=O)O[C@@H](/C=C/CC(C)C)C[C@@H]4CCC(C)C(C[C@@H](OC)CC(C2)O3)O4)co1 (some centres undefined) | < 0.01 | 20.7 | – | – | < 0.01 | 57.5 | < 0.01 | 79 | – | – | 26.5 | > 100 | 45.7 | > 100 | – | – | < 0.01 | > 100 | > 100 | > 100 |
| CN(C)CCNC(=O)Nc1c(C#N)[n+]([O-])c2cc(Cl)c(Cl)cc2[n+]1[O-] | 41.4 | > 100 | 27.2 | > 100 | 13.4 | > 100 | 34.2 | > 100 | 3.92 | 20.9 | 34.3 | > 100 | 14.6 | > 100 | 47.9 | > 100 | 27 | > 100 | 14.7 | > 100 |
| NC(N)=N/N=C/c1c(-c2ccccn2)nc2sc(Cl)cn12 | 8.15 | 14.9 | 11 | 25.8 | 8.36 | 17.3 | 9.58 | 17.5 | – | – | – | – | 8.58 | 23.3 | – | – | 11.5 | 19.1 | – | – |
| Cn1c(N)nc2c(nc(OCc3ccccc3)n2C2OC(CO)C(O)C2O)c1=O (centres undefined) | – | – | – | > 100 | – | > 100 | – | > 100 | – | > 100 | – | > 100 | – | > 100 | – | > 100 | – | – | – | > 100 |
| Cc1ccc(C(=O)CC(Sc2cccc(Cl)c2Cl)c2ccc(Cl)cc2)cc1C (centres undefined) | – | – | 30.6 | > 100 | 19.4 | 49.8 | 24.2 | 60.6 | 33 | > 100 | 20.5 | 44.8 | 27.1 | 76.9 | 25.8 | 56.9 | 17.4 | 32.6 | – | – |
| COc1ccc(-c2cc(-c3cc(Cl)ccc3Cl)nc3nc(=S)[nH]c(N)c23)cc1 | 17.5 | > 100 | – | – | 15.1 | 28.4 | 14.9 | 28.3 | 6.36 | > 100 | 99.3 | > 100 | > 100 | > 100 | – | – | 22.1 | 48.4 | 82.7 | > 100 |
| C=C1CC(COc2cc(Cl)nc(N)n2)C1 | 33 | – | 35.1 | – | 35.1 | – | – | – | 40.2 | – | – | – | 23.3 | – | 36.8 | – | 38.6 | – | 29.2 | – |
| CC1=Nc2c(ccc3c2C(=O)c2ccccc2C3=O)NC(c2ccncc2)C1 (centres undefined) | – | > 100 | – | > 100 | – | > 100 | – | > 100 | – | > 100 | > 100 | > 100 | – | – | > 100 | > 100 | > 100 | > 100 | – | > 100 |
| O=C1c2ccccc2-c2c1c1ccccc1c(=O)n2CCNCCCNCCn1c2c(c3ccccc3c1=O)C(=O)c1ccccc1-2 | 0.0221 | 0.334 | – | – | < 0.005 | 0.262 | 0.0723 | 1.16 | < 0.005 | > 50 | 0.0667 | > 50 | 0.719 | 2.12 | < 0.005 | 0.577 | 0.249 | 1.13 | – | – |
| CN1CCN(C)C1c1cccc(C2N(C)CCN2C)c1 | – | > 100 | – | > 100 | – | > 100 | – | > 100 | – | > 100 | – | > 100 | – | – | – | > 100 | – | > 100 | – | > 100 |
| Nc1ccc(SC23CC4CC(CC(C4)C2)C3)cc1 | – | > 100 | – | > 100 | – | > 100 | – | > 100 | – | – | – | > 100 | – | > 100 | – | > 100 | – | > 100 | – | – |
| C=C(C)[C@@H]1CC[C@@]2(C(=O)O)CC[C@]3(C)C(CCC4[C@@]5(C)CCC(OS(=O)(=O)c6ccccc6)C(C)(C)C5CC[C@]43C)C12 (some centres undefined) | 2.93 | 19.9 | – | – | 2.9 | 13.1 | 5.15 | 18.5 | – | – | 9.9 | 22.4 | 2 | 17.1 | 13.8 | 29.7 | 3.28 | 15.5 | 11.5 | 30.5 |
